From ChEMBL document CHEMBL1130967, “Modulation of apoptosis in human lymphocytes by adenosine analogues” (1998)

Legend:
Type in all cases: functional
[1] = Percentage of apoptotic cells in human peripheral blood mononuclear cells after 72 hour incubation at the concentration 10 uM; conditions: at 10 µM
[2] = Percentage of apoptotic cells in human peripheral blood mononuclear cells after 72 hour incubation at the concentration 30 uM; conditions: at 30 µM
[3] = Percentage of apoptotic cells in human peripheral blood mononuclear cells after 72 hour incubation at the concentration 1 uM; conditions: at 1 µM
[4] = Percentage of apoptotic cells in human peripheral blood mononuclear cells after 72 hour incubation at the concentration 60 uM; conditions: at 60 µM

| Structure (SMILES) | Apoptotic cells [1] [%] | Apoptotic cells [2] [%] | Apoptotic cells [3] [%] | Apoptotic cells [4] [%] |
| --- | --- | --- | --- | --- |
| OC[C@H]1O[C@@H](n2cnc3c(NC4CCCCCC4)cc(Cl)nc32)C[C@@H]1O | 7.9 | 9.6 | 7.4 | 10.5 |
| OC[C@H]1O[C@@H](n2cnc3c(NC4CCCCCC4)ncnc32)C[C@@H]1O | 9.4 | 9.8 | 8 | 11.1 |
| OC[C@H]1O[C@@H](n2cnc3c(NC4CCCC4)nc(Cl)cc32)C[C@@H]1O | 13.5 | 14.9 | 13.1 | 15.2 |
| OC[C@H]1O[C@@H](n2cnc3c(NC4CCCC4)ccnc32)C[C@@H]1O | 9.8 | 9.5 | 9.8 | 9.9 |
| Nc1nc(Cl)cc2c1ncn2C1O[C@H](CO)[C@@H](O)[C@H]1O (stereo not given in full) | 9 | 9.6 | 9.6 | 10.3 |
| OC[C@H]1O[C@@H](n2cnc3c(NC4CCCC4)ncnc32)C[C@@H]1O | 7.9 | 7.1 | 6.7 | 8.7 |
| Nc1nc(Cl)nc2c1ncn2C1OC(CO)CC1O (stereo not given) | 13 | 11.4 | 7.7 | 10.4 |
| OC[C@H]1O[C@@H](n2cnc3c(NC4CCCC4)nc(Cl)nc32)C[C@@H]1O | 10 | 18.8 | 4.7 | 38.8 |
| Nc1nc(Cl)nc2c1ncn2C1CCC(CO)O1 (stereo not given) | 8.5 | 9.6 | 4.7 | 11.4 |
| Nc1nc(Cl)cc2c1ncn2[C@H]1C[C@H](O)[C@@H](CO)O1 | 20.2 | 34.5 | 16.6 | 59.2 |
| OC[C@H]1O[C@@H](n2cnc3c(NC4CCCCCC4)nc(Cl)nc32)C[C@@H]1O | 7.9 | 12.3 | 8.2 | 16.3 |
| Nc1nccc2c1ncn2[C@@H]1O[C@H](CO)[C@@H](O)[C@H]1O | 6.5 | 11.9 | 9.9 | 10.7 |
| Nc1ccnc2c1ncn2[C@@H]1O[C@H](CO)[C@@H](O)[C@H]1O | 16.6 | 12.8 | 8 | 10.7 |
| OC[C@H]1O[C@@H](n2cnc3c(NC4CC4)nc(Cl)nc32)C[C@@H]1O | 7.7 | 17.9 | 7.8 | 24.7 |
| Nc1nc(Cl)nc2c1ncn2[C@H]1C[C@H](O)[C@@H](CO)O1 [CLADRIBINE] | 91.2 | 93.8 | 91 | 94.7 |
| OC[C@H]1O[C@@H](n2cnc3c(NC4CCCC4)nc(Cl)nc32)[C@H](O)[C@@H]1O | 10.4 | 9.6 | 5.4 | 11 |
| Nc1nc(I)nc2c1ncn2[C@@H]1O[C@H](CO)[C@@H](O)[C@H]1O | 12.1 | 12 | 9.1 | 12.2 |
| OC[C@H]1O[C@@H](n2cnc3c(NC4CC4)ncnc32)C[C@@H]1O | 9.5 | 9.5 | 7.1 | 10.6 |
| Nc1nc(Cl)nc2c1ncn2[C@@H]1O[C@H](CO)[C@@H](O)[C@H]1O | 41.8 | 82.7 | 8.8 | 91.9 |
| CNC(=O)C1OC(n2cnc3c(N)nc(Cl)nc32)CC1O (stereo not given) | 8.1 | 10.4 | 4.5 | 10.7 |
| OC[C@H]1O[C@@H](n2cnc3c(NC4CCCCCC4)ccnc32)C[C@@H]1O | 8.1 | 8.9 | 7.7 | 9.6 |
| Nc1cc(Cl)nc2c1ncn2[C@H]1C[C@H](O)[C@@H](CO)O1 | 8.7 | 9.8 | 5 | 10.6 |
| OC[C@H]1O[C@@H](n2cnc3c(NC4CC4)cc(Cl)nc32)C[C@@H]1O | 10.4 | 10.8 | 7.3 | 11.4 |
| OC[C@H]1O[C@@H](n2cnc3c(NC4CCCC4)cc(Cl)nc32)C[C@@H]1O | 9.7 | 12 | 8.6 | 13.9 |
| Nc1cc(Cl)nc2c1ncn2[C@@H]1O[C@H](CO)[C@@H](O)[C@H]1O | 10.4 | 11.1 | 10.2 | 12.1 |
